Columns and labels:
ShHTL3 = molecular target: ShHTL3; set-up: method as in PMID 27507097; conditions: ITC; read-out: KD of KAR1 to ShHTL3; cited from earlier work
ShHTL3 and ShMAX2 = assay: In vitro pull-down ShHTL3-ShMAX2; assay type: binding, Striga hermonthica; conditions: 50 μM ligand
Experimental: Ni-NTA pull-down assays were performed with purified ShMAX2 or AtMAX2 as the bait and […]14, or GST-AtD14 as the prey. The molecular weight of the HTL/D14 proteins is nearly the same as that of ASK1; therefore, the HTL/D14 proteins were fused to GST, increasing their molecular weight for detection on SDS-PAGE gels. […] The protein complexes were then eluted with 100 μL of elution buffer containing 50 mM Bis-Tris, pH 6.8, 500 mM NaCl, and 500 mM imidazole and subjected to SDS-PAGE analysis.

AtHTL = molecular target: T1, AtHTL (Arabidopsis thaliana, UniProt Q9SZU7); assay: ITC binding to AtHTL; conditions: 3 mM KAR1 into 150 μM protein, 20 °C
T1 sequence (Q9SZU7 1-270): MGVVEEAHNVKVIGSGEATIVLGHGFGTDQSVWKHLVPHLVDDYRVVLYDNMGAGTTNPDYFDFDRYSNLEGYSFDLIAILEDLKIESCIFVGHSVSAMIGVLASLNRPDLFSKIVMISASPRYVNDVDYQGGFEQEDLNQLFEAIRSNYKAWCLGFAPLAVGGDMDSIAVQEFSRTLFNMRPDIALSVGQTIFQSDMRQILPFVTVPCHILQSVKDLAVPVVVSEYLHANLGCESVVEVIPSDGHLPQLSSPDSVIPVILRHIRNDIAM
Experimental: The binding assays were performed using a MicroCal iTC200 isothermal titration calorimeter (GE Healthcare). Prior to the ITC experiments, concentrated ShD14, ShHTL1, ShHTL4, and ShHTL7 were exchanged into a buffer consisting of 20 mM HEPES (pH 8.0) and 150 mM NaCl to remove dithiothreitol and were then adjusted to a final concentration of 150 μM. The sample cell was filled with protein solution (204 μL). Nineteen consecutive 2.0-μL aliquots of 3 mM KAR1 (3-methyl-2H-furo [2,3-c] pyran-2-one) were injected into a prepared protein solution at 150 s intervals at 20 °C. The first injection volume was 0.4 μL, and the observed thermal peak was excluded from the data analysis. A negative control was obtained by titrating 3 mM KAR1 into the buffer (20 mM HEPES, pH 8.0, 150 mM NaCl) in the same manner. Data fitting was performed in “one set of sites” mode, and KD values were calculated using Origin software provided by MicroCal.
Supplementary Figure 3. Binding analyses of ShHTLs and ShD14 with KAR1. The ITC
assays were performed by adding 3 mM KAR1 to 150 μM ShHTL1 (a), ShHTL4 (b), ShHTL7
(c), ShD14 (d) and AtHTL (e).
ShHTL1 and AtHTL were fitted using the MicroCal origin software with the “one binding site”
model. The ITC assays titrating KAR1 into ShHTL1 and AtHTL were repeated three times
independently (data not shown).

ShHTL7 L124F/T190F/C194F = ShHTL7 L124F/T190F/C194F (Striga hermonthica, UniProt A0A0M3PNA2, C194F/L124F/T190F); assay: ITC binding to ShHTL7 triple mutation; conditions: 3 mM KAR1 into 150 μM mutant
Experimental: Supplementary Figure 8. Activity measurements of ShHTL7 mutants. (a-b), Binding analyses of the T190F/C194F double mutation (a) and L124F/T190F/C194F triple mutation (b) of ShHTL7 with KAR1 by ITC (shown in black). The ITC assays were performed by adding 3 mM KAR1 to 150 μM ShHTL7 mutants in the same manner as in Supplementary Figure 3. Results of titrating buffer to 150 μM ShHTL7 mutants are shown in red. The upper panel for each […]
injection (black squares). (c) YLG hydrolytic activity of ShHTL7 and its mutants. As described

Striga = test system: Striga; set-up: method as in doi:10.1016/j.plantsci.2009.06.007, PMID 26228149; conditions: cited from earlier work
[1] = test system: ShHTL1-AtMAX2 interaction; conditions: Y2H dilution series, 5 μM ligand
Source text: (§1) Full-length sequences of ShD14, ShHTL1, ShHTL3, ShHTL4, ShHTL7, and AtHTL were cloned into the pGBKT7 vector as bait (Clontech), and the coding regions of ShMAX2 and AtMAX2 were cloned into the pGADT7 vector as prey (Clontech). MAX2 was supposed to be unstable without ASK1. Therefore, AtASK1 was cloned into the N terminus of ShMAX2 and AtMAX2 with a 16-residue linker for co-expression. The bait and prey plasmids were co-transformed into the yeast (Saccharomyces cerevisiae) strain Y2HGold (Clontech) by the lithium acetate-mediated method. The presence of both plasmids was confirmed by growth on SD/-Leu/-Trp (-LT) plates. […] The plates were incubated for 5 days at 30 °C.
(§2) and AtHTL were detected using an anti-GST antibody, as indicated by the black arrows. (b)
(§3) 1/10, 1/20, 1/50, 1/100, 1/1000) of transformed yeast cells was plated on control medium (SD/-
(§4) Leu/-Trp; -LT) and selective medium (SD/-Leu/-Trp/-His/-Ade; -LTHA) in the absence or
(§5) (1 picture or pasted object on this page, not shown here)

[2] = test system: ShHTL1–ShMAX2 interaction; conditions: Y2H dilution series, 5 μM ligand
Source text: as §1, §2, §3, §4, §5

[3] = test system: ShHTL1–ShMAX2 interaction; assay: In vitro pull-down ShHTL1-ShMAX2; assay type: binding, Striga hermonthica; conditions: 50 μM ligand
Experimental: Ni-NTA pull-down assays were performed with purified ShMAX2 or AtMAX2 as the bait and […]14, or GST-AtD14 as the prey. The molecular weight of the HTL/D14 proteins is nearly the same as that of ASK1; therefore, the HTL/D14 proteins were fused to GST, increasing their molecular weight for detection on SDS-PAGE gels. […] The protein complexes were then eluted with 100 μL of elution buffer containing 50 mM Bis-Tris, pH 6.8, 500 mM NaCl, and 500 mM imidazole and subjected to SDS-PAGE analysis. Samples of […] […] also subjected to western blotting after separation by SDS-PAGE. The proteins were transferred from the SDS-PAGE gel to a polyvinylidene fluoride (PVDF) membrane (Merck Millipore). […] Next, the membrane was incubated with anti-GST antibody as the primary antibody (71097-3; Novagen; diluted 1:10,000) at 25 °C for 1.5 h and then washed 3 times with TBST buffer. Anti-mouse antibody (32430; Thermo Scientific; diluted 1:4000) conjugated to horseradish peroxidase was used as the secondary antibody. After incubation with the secondary antibody at 25 °C for 1.5 h, the membrane was washed 3 times. For detection, SuperSignal West Femto Maximum Sensitivity Substrate (Thermo Scientific) was used as the chemiluminescence substrate and ImageQuant LAS 4000 mini (GE Healthcare) was used for imaging.

ShHTL7 L124F/T190F/C194F, sequence (A0A0M3PNA2 whole entry L124F/T190F/C194F): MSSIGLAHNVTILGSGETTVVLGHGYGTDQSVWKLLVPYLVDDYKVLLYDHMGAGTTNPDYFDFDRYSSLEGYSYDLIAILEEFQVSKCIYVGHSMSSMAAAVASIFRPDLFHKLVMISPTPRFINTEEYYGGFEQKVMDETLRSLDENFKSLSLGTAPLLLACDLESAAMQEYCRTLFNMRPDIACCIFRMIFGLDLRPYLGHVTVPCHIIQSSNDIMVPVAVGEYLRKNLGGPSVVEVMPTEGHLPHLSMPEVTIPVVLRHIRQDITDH

For Cc1c2ccocc-2oc1=O [KAR1, 3-methyl-2H-furo [2,3-c] pyran-2-one], the Kd (ShHTL3) is listed as 78 ± 3 µM, the “ShHTL3-ShMAX2 interaction in the presence of ligand” value (ShHTL3 and ShMAX2) is listed as “no direct interaction with ShMAX2 in the presence of KAR1” and the Kd (AtHTL) is listed as 129 ± 17 µM. The “KAR1 binding by ShHTL7 L124F/T190F/C194F” value (ShHTL7 L124F/T190F/C194F) was “able to bind to KAR1 weakly”, the “induction of germination of Striga” value (Striga) was “fails to induce germination of Striga” and the “ligand effect on ShHTL1-AtMAX2 interaction” value [1] was “significant difference between the control and the presence of KAR1 or rac-GR24 was not observed”. The “ligand effect on ShHTL1-ShMAX2 interaction” value [2] was “significant difference between the control and the presence of KAR1 or rac-GR24 was not observed” and the “ShHTL1-ShMAX2 interaction in the presence of ligand” value [3] was “no direct interaction with ShMAX2 in the presence of KAR1”.

Source: article PMC6158167 (Nature Communications, 2018)
